The values that follow come from US12624031B2, “Inhibitors of ubiquitin specific peptidase 22 (USP22) and uses thereof for treating diseases and disorders” (Northwestern University, priority 2022, dated 2026).

Series [1] deals with PD-L1 expression in A549 cells. Kind of series: PD-L1 expression in A549 cells by flow cytometry. It counts as cell-based, human. As to conditions: Homo sapiens; A549 cells, 48 hours; unit inferred; read-out: IC50 inhibition of PD-L1 expression. The protocol: FIG. 13: The effects of USP22i-S02-S106 on suppression of PD-L1 expression on human lung adenocarcinoma cells. Human […] lung adenocarcinoma A549 cells were treated with S02-S106 or its lead compound S02 for 48 hours. The expression levels of PD-L1 were determined by flow cytometry. (A) Representative flow data from A549 cells treated with 2 μM S02-S106 or with 15 μM S02 are shown. DMSO treated cells were used as an untreated control and USP22 CRISPR knockout A549 cells were used as a positive control. (B) The dose-dependent inhibition of PD-L1 expression in A549 cells by S02-S106 with USP22i-S02 as a control. Data were normalized with PD-L1 expression levels in USP22-KO cells as 100% of USP22 inhibition as shown in A. (C) Inhibition of PD-L1 expression in WT and USP22-null A549 cells by S02-S106.
We then used PD-L1 expression level as a measurement to evaluate the inhibitory efficacy of USP22 by S02-S106.
To determine the specificity of USP22i-S02-S106, we treated the WT and USP22-null lung cancer cells.
(In general: Flow cytometry measures light scatter and fluorescence of single cells or particles in a stream.)

In the next series the test system is Foxp3 in iTreg cells. Briefly: in vitro dose response study in WT and Usp22-null iTreg cells. It is filed as cell-based, murine. As for the experimental part:
FIG. 6: Usp22i-S02 halts Usp22-mediated Foxp3 deubiqutination. A, Graphical representation of Foxp3 MFI change in WT versus 22KO iTreg cells treated with various doses of Usp22i-S02 (n=3). B, Representative histogram of Foxp3 MFI level in iTreg cells as Usp22 inhibitor concentration increases from 0-20 μg/mL. C, Cell survival of iTreg cells treated with various doses of Usp22i-S02 (n=3). D, FOXP3 and USP22 protein level in WT and 22KO mice treated with 10 μg/mL Usp22i-S02. E-F, Graphical and representative data of Foxp3 MFI of human Treg cells treated with various doses of Usp22i-S02 (n=3). G, Graphical representation of Foxp3 MFI in WT, Usp21-null, and Usp22-null Treg cells treated with Usp22i-S02 at 10 μg/mL (n=3). H, FOXP3 and USP22 protein degradation of cycloheximide (10 μg/mL) treated iTreg cells with or without the addition of 10 μg/mL of Usp22i-S02. I-J, Endogenous DUB assay IP in iTreg cells of USP22 with FOXP3 under increasing concentrations of Usp22i-S02. K, Foxp3 mRNA level in iTreg cells as Usp22 inhibitor concentration increases from 0-20 μg/mL (n=3). L, FOXP3 and USP22 level in WT iTreg cells with or without 20 μg/mL Usp22 inhibitor treated with 20 μM MG132. M, Graphical representation of the percentage of decrease of Foxp3 MFI in either WT or Usp22-null nTreg cells placed in low glucose conditions with or without the addition of 10 μg/mL of Usp22i-S02 (n=7-8). N, Graphical representation of the percentage of decrease of Foxp3 MFI in WT nTreg cells placed in hypoxic or low amino acid conditions with or without the addition of 10 μg/mL of Usp22i-S02 (n=3-5). G, Two-tailed unpaired t-test comparing within groups was performed to determine statistical significance. K, One-way ANOVA with Dunnet's multiple comparisons between rows relative to control was performed to determine statistical significance. M-N, Two-way ANOVA with Sidak's multiple comparisons between rows was performed to determine statistical significance. All data are presented as mean±stdev. NS, not significant. *P<0.05, **P<0.01, ***P<0.001, ****P<0.0001.
After initial screening, we ran an in vitro dose response study on compound S02, dubbed Usp22i-S02, in both WT and Usp22-null iTreg cells (FIG. 6A-C).

In the case of `N#Cc1c2c(c(Nc3ccccc3)n3c1nc1ccccc13)CCCC2` [USP22i-S02, 11-anilino-7,8,9,10-tetrahydrobenzimidazo[1,2-b]isoquinoline-6-carbonitrile], in series [1], the IC50 (in general, the midpoint of a concentration-inhibition curve) was determined as 13.7 µM. In the series with Foxp3 in iTreg cells (10 μg/mL), the “viability of iTreg cells” value is reported as “little effect on viability”. Besides, the “FOXP3 degradation with MG132” value in the series on Foxp3 in iTreg cells (20 μg/mL inhibitor, 20 μM MG132) is recorded as “halted by MG132 protease inhibition”. Further, the “FOXP3 degradation in cycloheximide treated iTreg cells” value in the series on Foxp3 in iTreg cells (CHX 10 μg/mL, 10 μg/mL inhibitor) is given as “enhanced FOXP3 degradation”. In addition, the “effect on iTreg cells lacking Usp21” value in the series with Foxp3 in iTreg cells (Usp21-null, 10 μg/mL) was “full effect”. Also, the “FOXP3 levels in murine Treg cells lacking Usp22” value with Foxp3 in iTreg cells (Usp22-null, in vivo and in vitro) is listed as “minimal effect on FOXP3 levels”. In the series on Foxp3 in iTreg cells (Usp22-null, low glucose, 10 μg/mL), the “Foxp3 under glucose starvation in Treg cells lacking Usp22” value was “no effect on Foxp3”. Moreover, in the series on Foxp3 in iTreg cells (WT Treg cells, low glucose, 10 μg/mL), the “Foxp3 stability under glucose starvation” value is “significantly diminished Foxp3 stability”. Besides, the “Foxp3 MFI and protein level” value with Foxp3 in iTreg cells (WT iTreg cells, 10 μg/mL) is “decreases in Foxp3 MFI and protein level comparable to Usp22-null iTreg cells”. In addition, in the series with Foxp3 in iTreg cells (WT nTreg cells, 10 μg/mL), the “Foxp3 stability under hypoxic and amino acid starvation conditions” value was “reduces Foxp3 stability”. In addition, the Foxp3 transcription result in the series on Foxp3 in iTreg cells (iTreg cells, 0-20 μg/mL) was “decreased Foxp3 transcription”. In addition, the FOXP3 ubiquitination result in the series on Foxp3 in iTreg cells (iTreg cells, endogenous DUB assay IP) is “increased FOXP3 ubiquitination”.
